From ChEMBL document CHEMBL1123443, “Synthesis and evaluation of 1-(arylsulfonyl)-2-[(methoxycarbonyl)sulfenyl]-1-methylhydrazines++ + as antineoplastic agents” (1986)

Assays:
Type in all cases: functional, Mus musculus
[1] = test system: B16; experiment: Effect of compound on the body weight of mice bearing the B16 melanoma at a daily dose of 100 mg/kg
[2] = test system: B16; experiment: Effect of compound on the survival time of mice bearing the B16 melanoma at a daily dose of 150 mg/kg
[3] = test system: B16; experiment: Effect of compound on the body weight of mice bearing the B16 melanoma at a daily dose of 150 mg/kg
[4] = test system: B16; experiment: Effect of compound on the survival time of mice bearing the B16 melanoma at a daily dose (mg/kg) of,50
[5] = test system: B16; experiment: Effect of compound on the survival time of mice bearing the B16 melanoma at a daily dose of 100 mg/kg
[6] = test system: B16; experiment: Effect of compound on the body weight of mice bearing the B16 melanoma at a daily dose of 12.5 mg/kg
[7] = test system: L1210; experiment: Effect of compound on the body weight of mice bearing the L1210 leukemia at a daily dose of 12.5-50 mg/kg
[8] = test system: B16; experiment: Effect of compound on the survival time of mice bearing the B16 melanoma at a daily dose (mg/kg) of 50
[9] = test system: B16; experiment: Effect of compound on the survival time of mice bearing the B16 melanoma at a daily dose of 12.5 mg/kg
[10] = test system: B16; experiment: Effect of compound on the survival time of mice bearing the B16 melanoma at a daily dose of 25 mg/kg
[11] = test system: B16; experiment: Effect of compound on the body weight of mice bearing the B16 melanoma at a daily dose of 50 mg/kg
[12] = test system: B16; experiment: Effect of compound on the body weight of mice bearing the B16 melanoma at a daily dose of 25 mg/kg
[13] = test system: L1210; experiment: Effect of compound on the survival time of mice bearing the L1210 leukemia at a daily dose (mg/kg) of 12.5-50
[14] = test system: L1210; experiment: Effect of compound on the survival time of mice bearing the L1210 leukemia at a daily dose of 12.5-50 mg/kg
[15] = test system: B16; experiment: Effect of compound on the survival time of mice bearing the B16 melanoma at a daily dose of 50 mg/kg

CN(C)/N=N/c1[nH]cnc1C(N)=O [DACARBAZINE]
Change in weight [1]: -4.4% | T/C [2]: 177% | Change in weight [3]: -5.7% | T/C [4]: 135% | T/C [5]: 161% | Change in weight [6]: -2.3%

COC(=O)SNN(C)S(=O)(=O)Cc1ccccc1
Change in weight [7]: -8% | T/C [8]: 59% | T/C [9]: 152% | T/C [10]: 157% | Change in weight [11]: -27.4% | Change in weight [12]: -14.8% | T/C [13]: 100% | Change in weight [6]: -2.5%

COC(=O)SNN(C)S(=O)(=O)c1ccc(C)cc1
Change in weight [7]: -4.2% | T/C [8]: 232% | T/C [9]: 182% | T/C [10]: 199% | Change in weight [11]: -17.7% | Change in weight [12]: -3.3% | T/C [13]: 118% | Change in weight [6]: 0.7%

COC(=O)SNNS(=O)(=O)c1ccc(C)cc1
T/C [8]: 98% | T/C [9]: 100% | T/C [10]: 113% | Change in weight [11]: -0.4% | Change in weight [12]: 3.7% | Change in weight [6]: 1.6%

COC(=O)SNN(C)S(=O)(=O)c1ccc(OC)cc1
Change in weight [7]: -6.7% | T/C [8]: 177% | T/C [9]: 148% | T/C [10]: 160% | Change in weight [11]: -18.7% | Change in weight [12]: -6.4% | T/C [13]: 149% | Change in weight [6]: -0.2%

COC(=O)SNN(C)S(=O)(=O)c1ccccc1
Change in weight [7]: -10.9% | T/C [9]: 169% | T/C [10]: 183% | T/C [14]: 113% | T/C [15]: 49% | Change in weight [11]: -33.4% | Change in weight [12]: -13% | Change in weight [6]: -5.2%

COC(=O)SNN(C)S(=O)(=O)c1ccc(Br)cc1
Change in weight [7]: -0.2% | T/C [8]: 160% | T/C [9]: 144% | T/C [10]: 146% | Change in weight [11]: -11.4% | Change in weight [12]: -5.5% | T/C [13]: 122% | Change in weight [6]: -2%

COC(=O)SNN(C)S(=O)(=O)c1ccc2ccccc2c1
T/C [8]: 163% | T/C [9]: 123% | T/C [10]: 140% | Change in weight [11]: -4.8% | Change in weight [12]: 1.4% | Change in weight [6]: -0.2%
